# From the supplement of paper PMC11451515
# Tested on: NOMO1
# Assay: cell viability relative to DMSO control; higher = less cytotoxic
# Details: 48 h
# In short: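 Viability is expressed as a percentage of DMSO wells within each plate, and cell-free wells serve as background. Seeding densities in the 1536-well plates (5 μl) were 500 cells/well for NOMO1 or SEM leukemia cells and 1000 cells/well for P12-Ichikawa. Each line was adapted for at least four passages in each medium. Library compounds in DMSO were pin-dosed at 47 μM to 0.79 nM (11 points, threefold), and CellTiter-Glo One luminescence was read after 48 h at 37°C.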
# [1] = HPLM + 10% dialyzed FBS, 0.000781 µM
# [2] = HPLM + 10% dialyzed FBS, 0.00234 µM
# [3] = HPLM + 10% dialyzed FBS, 0.00702 µM
# [4] = HPLM + 10% dialyzed FBS, 0.0211 µM
# [5] = HPLM + 10% dialyzed FBS, 0.0632 µM
# [6] = HPLM + 10% dialyzed FBS, 0.19 µM
# [7] = HPLM + 10% dialyzed FBS, 0.569 µM
# [8] = HPLM + 10% dialyzed FBS, 1.71 µM
# [9] = HPLM + 10% dialyzed FBS, 5.12 µM
# [10] = HPLM + 10% dialyzed FBS, 15.4 µM
# [11] = HPLM + 10% dialyzed FBS, 46.1 µM
# [12] = RPMI 5 mM glucose + 10% FBS, 0.000781 µM
# [13] = RPMI 5 mM glucose + 10% FBS, 0.00234 µM
# [14] = RPMI 5 mM glucose + 10% FBS, 0.00702 µM
# [15] = RPMI 5 mM glucose + 10% FBS, 0.0211 µM
# [16] = RPMI 5 mM glucose + 10% FBS, 0.0632 µM
# [17] = RPMI 5 mM glucose + 10% FBS, 0.19 µM
# [18] = RPMI 5 mM glucose + 10% FBS, 0.569 µM
# [19] = RPMI 5 mM glucose + 10% FBS, 1.71 µM
# [20] = RPMI 5 mM glucose + 10% FBS, 5.12 µM
# [21] = RPMI 5 mM glucose + 10% FBS, 15.4 µM
# [22] = RPMI 5 mM glucose + 10% FBS, 46.1 µM
# [23] = RPMI 5 mM glucose + 10% dialyzed FBS, 0.000781 µM
# [24] = RPMI 5 mM glucose + 10% dialyzed FBS, 0.00234 µM
# [25] = RPMI 5 mM glucose + 10% dialyzed FBS, 0.00702 µM
# [26] = RPMI 5 mM glucose + 10% dialyzed FBS, 0.0211 µM
# [27] = RPMI 5 mM glucose + 10% dialyzed FBS, 0.0632 µM
# [28] = RPMI 5 mM glucose + 10% dialyzed FBS, 0.19 µM
# [29] = RPMI 5 mM glucose + 10% dialyzed FBS, 0.569 µM
# [30] = RPMI 5 mM glucose + 10% dialyzed FBS, 1.71 µM
# [31] = RPMI 5 mM glucose + 10% dialyzed FBS, 5.12 µM
# [32] = RPMI 5 mM glucose + 10% dialyzed FBS, 15.4 µM
# [33] = RPMI 5 mM glucose + 10% dialyzed FBS, 46.1 µM
Compound,cell viability [1],cell viability [2],cell viability [3],cell viability [4],cell viability [5],cell viability [6],cell viability [7],cell viability [8],cell viability [9],cell viability [10],cell viability [11],cell viability [12],cell viability [13],cell viability [14],cell viability [15],cell viability [16],cell viability [17],cell viability [18],cell viability [19],cell viability [20],cell viability [21],cell viability [22],cell viability [23],cell viability [24],cell viability [25],cell viability [26],cell viability [27],cell viability [28],cell viability [29],cell viability [30],cell viability [31],cell viability [32],cell viability [33]
O=C1NC(O)CCN1[C@@H]1O[C@H](CO)[C@@H](O)[C@H]1O (stereo partly specified),145%,124%,123%,142%,113%,131%,143%,116%,111%,92.2%,21%,121%,110%,104%,112%,110%,110%,105%,105%,109%,108%,32.3%,112%,108%,113%,108%,110%,110%,125%,126%,111%,106%,34.8%
NC\1=N\C(=O)N(\C=C1)[C@H]\2[C@H](O)[C@H](O)C(=C2F)\CO,78.5%,111%,105%,101%,110%,90.8%,94.7%,67.5%,32.1%,33.6%,11.3%,86.3%,112%,117%,106%,107%,88.2%,93%,83.5%,54.6%,12.6%,7.41%,89.1%,96.9%,104%,111%,109%,107%,111%,86.4%,27.7%,10.2%,7.62%
O=c1[nH]cnc2c1ncn2[C@H]1CC[C@@H](CO)O1,91.5%,91.9%,118%,97.9%,93.2%,88.8%,98.6%,100%,107%,71.9%,55%,78.5%,88.5%,93.2%,94.7%,87.7%,87.7%,101%,90.4%,94.4%,85.5%,48.4%,75.4%,92.5%,97.8%,94.5%,95.1%,83.5%,92.8%,97.3%,103%,89%,57.1%
CN(C)C[C@@H]1CC[N]2C=C(C3=C2C=CC=C3)C/4=C(/C(=O)NC4=O)C5=C[N](CCO1)C6=C5C=CC=C6,88.8%,111%,109%,96.6%,102%,91.4%,94%,88.7%,95.4%,85.3%,27.7%,98.3%,85.9%,89.3%,87.4%,91.7%,92.9%,93%,87.5%,86.1%,83.5%,73.3%,90.6%,84.2%,99.8%,93.4%,99.6%,97.3%,92.3%,85.8%,83.7%,77.7%,67.7%
O=C(NNC(=O)c1ccc(CN[S+](=O)([O-])c2ccc(F)c(Cl)c2)cc1)c1ccccc1,105%,105%,116%,121%,112%,103%,104%,117%,113%,82.7%,110%,84.1%,85.2%,85.2%,89.3%,92.9%,99.5%,93.3%,91.3%,96.7%,94.5%,92.6%,92.1%,98.5%,107%,94.2%,111%,105%,103%,102%,115%,112%,115%
CC(C)(C)c1cc(C(=O)O)c(NC(=O)Nc2ccc3[nH]ncc3c2)s1,98.5%,106%,101%,90.7%,91.1%,86.6%,90.5%,93.9%,98.8%,77.2%,74.3%,85.9%,93.1%,86.6%,90.2%,89.9%,92.3%,91.5%,83.9%,91.2%,77.3%,78%,87.9%,92.5%,84%,89.5%,90.9%,83.1%,83%,94.9%,102%,82.8%,81.6%
CCNC(=O)[C@H]1O[C@@H](n2cnc3c(N)nc(NCCc4ccc(CCC(=O)O)cc4)nc32)[C@H](O)[C@@H]1O,104%,83.1%,98.9%,103%,95.7%,104%,96.6%,95.6%,87.3%,96.6%,91%,104%,91.6%,94%,102%,89.4%,89.3%,86.9%,90.6%,89.9%,90.8%,84.1%,89.3%,104%,100%,93.5%,92.3%,90.8%,96.9%,88.7%,94.5%,78.8%,87.8%
